In PubChem BioAssay (NCI):
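Step 1: Grow cells in 96-well plates. Step 2: Expose to compound for 48 hours at 5 concentrations. Step 3: Interpolate endpoints linearly; if unreached, use highest concentration. At the GI50, growth is halved. TGI is the concentration that stops growth completely.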

Key:
Experiment in all cases: DTP human tumour cell line panel, 48 h
[1] = system: SK-OV-3 ovarian
[2] = system: LXFL 529 NSCLC
[3] = system: DMS 114 small cell lung
[4] = system: RXF-631 renal
[5] = system: KM20L2 colon
[6] = system: HCT-116 colon
[7] = system: HOP-18 NSCLC
[8] = system: M19-MEL melanoma
[9] = system: DMS 273 small cell lung
[10] = system: DLD-1 colon
[11] = system: SNB-78 CNS
[12] = system: XF 498 CNS
[13] = system: SK-MEL-2 melanoma
[14] = system: BT-549 breast
[15] = system: MCF7 breast

`COC(=O)C(Br)C1CCc2ccccc21` (centres undefined) was tested, and the TGI [1] was > 100 µM, the TGI [2] was > 100 µM and the TGI [3] was > 100 µM. For the same molecule, the TGI [4] was > 100 µM, the TGI [5] was > 100 µM and the TGI [6] was > 100 µM. The TGI [7] was > 100 µM, the TGI [8] was > 100 µM and the TGI [9] was > 100 µM. For the same molecule, the TGI [10] was > 100 µM.

With `C=CCN1/C(=C2\SC(=S)N(c3ccc(C)cc3)C2=O)Sc2c1nc[nH]c2=O` the TGI [1] was > 100 µM, the TGI [2] was > 100 µM and the TGI [3] was > 100 µM. The TGI [11] was > 100 µM, the TGI [12] was > 100 µM and the TGI [5] was > 100 µM. The TGI [6] was > 100 µM, the TGI [8] was > 100 µM and the TGI [9] was > 100 µM. For the same molecule, the TGI [13] was > 100 µM and the TGI [10] was > 100 µM.

With `O=C1c2ccccc2C(=O)C1C(c1ccc(F)cc1)C1C(=O)c2ccccc2C1=O` the TGI [1] was > 100 µM, the TGI [2] was > 100 µM and the TGI [3] was > 100 µM. The TGI [4] was > 100 µM, the TGI [11] was > 100 µM and the TGI [12] was > 100 µM. The TGI [5] was > 100 µM, the TGI [6] was > 100 µM and the TGI [7] was > 100 µM. The TGI [8] was > 100 µM, the TGI [9] was > 100 µM and the TGI [13] was > 100 µM. For the same molecule, the TGI [10] was > 100 µM.

With `C/C=C1\CN2CCc3c([nH]c4ccccc34)C2C=C1CCO` (centres undefined) the TGI [1] was > 340 µM, the TGI [2] was > 340 µM and the TGI [3] was > 340 µM. The TGI [4] was > 340 µM, the TGI [12] was > 340 µM and the TGI [5] was > 340 µM. For the same molecule, the TGI [6] was > 340 µM, the TGI [8] was > 340 µM and the TGI [9] was > 340 µM. The TGI [13] was > 340 µM and the TGI [10] was > 340 µM.

With `O=c1cc(-c2ccco2)[nH]c2cc3c(cc12)OCO3` the TGI [2] was > 100 µM, the GI50 [3] was 37.2 µM and the TGI [3] was > 100 µM. For the same molecule, the TGI [4] was > 100 µM, the TGI [12] was 82.4 µM and the GI50 [5] was 21.2 µM. The TGI [5] was 66.8 µM, the GI50 [6] was 39.9 µM and the TGI [6] was > 100 µM. For the same molecule, the TGI [8] was > 100 µM, the TGI [9] was > 100 µM and the TGI [13] was > 100 µM. For the same molecule, the TGI [10] was > 100 µM.

`CC(=O)O[C@@]12CO[C@@H]1C[C@@H](O)[C@@]1(C)C(=O)[C@H](O)C3=C(C)[C@@H](OC(=O)[C@H](O)[C@@H](NC(=O)c4ccccc4)c4ccccc4)C[C@@](O)([C@@H](OC(=O)c4ccccc4)C12)C3(C)C` (some centres undefined) was tested, and the TGI [1] was > 100 µM, the TGI [14] was > 100 µM and the TGI [3] was 22.8 µM. The TGI [5] was 0.0985 µM, the TGI [6] was 0.152 µM and the TGI [8] was 70.9 µM. The TGI [9] was 13.5 µM, the TGI [15] was > 100 µM and the TGI [13] was 0.887 µM.

In the case of `Cc1[nH]c(=O)[nH]c1C(=O)c1ccc(-n2ccnc2)cc1`, the TGI [1] is reported as > 100 µM, the TGI [2] is reported as > 100 µM and the TGI [3] is reported as > 100 µM. For the same molecule, the TGI [5] was > 100 µM, the TGI [6] was > 100 µM and the TGI [8] was > 100 µM. For the same molecule, the TGI [9] was > 100 µM, the TGI [13] was > 100 µM and the TGI [10] was > 100 µM.

In the case of `CCCCNC(=O)C1C2CCC(O2)C1C(=O)O` (centres undefined), the TGI [1] is reported as 53.7 µM, the TGI [2] is reported as 34.6 µM and the TGI [3] is reported as 28.2 µM. The TGI [4] was > 100 µM, the TGI [11] was > 100 µM and the TGI [12] was 19.2 µM. The TGI [5] was 27.4 µM, the TGI [6] was 25.2 µM and the TGI [7] was 90.9 µM. For the same molecule, the TGI [8] was 41.4 µM, the TGI [9] was > 100 µM and the TGI [13] was 54.8 µM. For the same molecule, the TGI [10] was 49.4 µM.

In the case of `COc1ccc(NC(=O)C(C)Oc2ccc(OCC3CCCCC3)cc2)cc1` (centres undefined), the TGI [1] is reported as > 100 µM, the TGI [2] is reported as > 100 µM and the TGI [3] is reported as > 100 µM. For the same molecule, the TGI [11] was > 100 µM, the TGI [12] was > 100 µM and the TGI [6] was > 100 µM. The TGI [8] was > 100 µM, the TGI [9] was > 100 µM and the TGI [13] was > 100 µM. For the same molecule, the TGI [10] was > 100 µM.

`C#CCN(N=O)C(=O)NCCCCC(NC(C)=O)C(=O)NCc1ccccc1` (centres undefined) was tested, and the TGI [1] was > 100 µM, the TGI [2] was > 100 µM and the TGI [3] was > 100 µM. The TGI [11] was > 100 µM, the TGI [12] was > 100 µM and the TGI [5] was > 100 µM. The TGI [6] was > 100 µM, the TGI [7] was > 100 µM and the TGI [8] was > 100 µM. For the same molecule, the TGI [10] was > 100 µM.

For `COC(=O)C(C(=O)C(=O)Nc1cccc([N+](=O)[O-])c1)c1nc2ccc([N+](=O)[O-])cc2[nH]c1=O` (centres undefined), the TGI [1] was > 100 µM, the TGI [2] was > 100 µM and the TGI [3] was > 100 µM. The TGI [4] was > 100 µM, the TGI [11] was > 100 µM and the TGI [12] was > 100 µM. The TGI [5] was > 100 µM, the TGI [6] was > 100 µM and the TGI [7] was > 100 µM. The TGI [8] was > 100 µM, the TGI [9] was > 100 µM and the TGI [13] was > 100 µM. The TGI [10] was > 100 µM.

For `C=C(C(=C)N1N=NC2C3CCC(C3)C21)N1N=NC2C3CCC(C3)C21` (centres undefined), the TGI [2] was > 100 µM, the TGI [3] was > 100 µM and the TGI [4] was > 100 µM. The TGI [11] was > 100 µM, the TGI [12] was > 100 µM and the TGI [6] was > 100 µM. The TGI [7] was > 100 µM, the TGI [8] was > 100 µM and the TGI [9] was > 100 µM. For the same molecule, the TGI [10] was > 100 µM.

For `C=C1C(OC(=O)/C=C/c2ccccc2)CC(OC(C)=O)C2(C)C1CC1CC(OC(C)=O)C(C)=C(C(OC(C)=O)C2OC(C)=O)C1(C)C` (centres undefined), the TGI [1] was > 100 µM, the TGI [2] was > 100 µM and the TGI [3] was > 100 µM. For the same molecule, the TGI [4] was > 100 µM, the TGI [11] was > 100 µM and the TGI [5] was > 100 µM. The TGI [6] was > 100 µM, the TGI [7] was > 100 µM and the TGI [8] was > 100 µM. For the same molecule, the TGI [9] was > 100 µM.

For `CN(C)c1snc2c1c(=O)n(C)c(=O)n2C`, the TGI [1] was > 100 µM, the TGI [2] was > 100 µM and the TGI [3] was > 100 µM. The TGI [4] was > 100 µM, the TGI [12] was > 100 µM and the TGI [5] was > 100 µM. For the same molecule, the TGI [6] was > 100 µM, the TGI [7] was > 100 µM and the TGI [8] was > 100 µM. For the same molecule, the TGI [9] was > 100 µM, the TGI [13] was > 100 µM and the TGI [10] was > 100 µM.
